{
  "source": "patent US6368616B1",
  "about": "“Aqueous suspension for nasal administration of loteprednol” (Senju Pharmaceutical Co., Ltd., priority 1997, dated 2002)",
  "origin": "cited, not measured here",
  "data": [
    {"compound": "CCOC(=O)O[C@]1(C(=O)OCCl)CC[C@H]2[C@@H]3CCC4=CC(=O)C=C[C@]4(C)[C@H]3[C@@H](O)C[C@@]21C", "note": "[loteprednol etabonate, Loteprednol etabonate]", "values": [
      {"measurement": "solubility in water", "value": "substantially insoluble in water"}
    ]}
  ]
}
